Results: patent publication US20230085307A1, “PYRIDAZINONE COMPOUND AND HERBICIDE” (NISSAN CHEMICAL CORPORATION, priority 2019, published 2023)

Key:
late watergrass = assay: Test Example 1: herbicidal activity, application before weed generation under submerged conditions (Table 16, symbol A); type: in vivo, late watergrass (Echinochloa oryzicola)
Method in brief: (§1)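 Alluvial soil was flooded to 4 cm depth, weed seeds were sown mixed and 2.5-leaf rice seedlings were transplanted. On sowing day, the compound's emulsion, diluted in water to a set dose, was applied to the water surface. Plants grew at 25–30 °C and were scored 0–5 after three weeks.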

Japanese bulrush = assay: Test Example 1: herbicidal activity, application before weed generation under submerged conditions (Table 16, symbol B); type: in vivo, Japanese bulrush (Schoenoplectus juncoides)
Method in brief: as §1

oval-leafed pondweed = assay: Test Example 1: herbicidal activity, application before weed generation under submerged conditions (Table 16, symbol C); type: in vivo, oval-leafed pondweed (Monochoria vaginalis)
Method in brief: as §1

barnyard grass [1] = assay: Test Example 3: herbicidal effect by foliage application, Wagner pot (Table 18, symbol H); type: in vivo, barnyard grass (Echinochloa crus-galli)
Method in brief: (§2)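 Plants were sown in alluvial soil held under 0.1–0.5 cm standing water and grown 14 days in a greenhouse at 25–30 °C. An emulsifiable formulation, water-diluted to the set dose, was then sprayed onto the foliage, and effects were scored three weeks later using previously defined criteria.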

Chinese sprangletop = assay: Test Example 3: herbicidal effect by foliage application, Wagner pot (Table 18, symbol D); type: in vivo, chinese sprangletop (Leptochloa chinensis)
Method in brief: as §2

rice flat sedge = assay: Test Example 3: herbicidal effect by foliage application, Wagner pot (Table 18, symbol E); type: in vivo, rice flat sedge (Cyperus iria)
Method in brief: as §2

southern crabgrass [2] = assay: Test Example 4: herbicidal effect by soil treatment (Table 19, symbol F); type: in vivo, southern crabgrass (Digitaria ciliaris); settings: amount of applied herbicide 320 g/ha
Method in brief: (§3)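 Emulsion of test compound, water-diluted to predetermined amount, sprayed on soil after sowing (seed depth ~1.5 cm, sterilized diluvial soil). Greenhouse, 25–30° C. Effect graded at three weeks post-spray.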

green foxtail [3] = assay: Test Example 4: herbicidal effect by soil treatment (Table 19, symbol G); type: in vivo, green foxtail (Setaria viridis); settings: amount of applied herbicide 320 g/ha
Method in brief: as §3

barnyard grass [4] = assay: Test Example 4: herbicidal effect by soil treatment (Table 19, symbol H); type: in vivo, barnyard grass (Echinochloa crus-galli); settings: amount of applied herbicide 320 g/ha
Method in brief: as §3

wild oat [5] = assay: Test Example 4: herbicidal effect by soil treatment (Table 19, symbol I); type: in vivo, wild oat (Avena fatua); settings: amount of applied herbicide 320 g/ha
Method in brief: as §3

blackgrass [6] = assay: Test Example 4: herbicidal effect by soil treatment (Table 19, symbol J); type: in vivo, blackgrass (Alopecurus myosuroides); settings: amount of applied herbicide 320 g/ha
Method in brief: as §3

Italian ryegrass [7] = assay: Test Example 4: herbicidal effect by soil treatment (Table 19, symbol K); type: in vivo, Italian ryegrass (Lolium multiflorum); settings: amount of applied herbicide 320 g/ha
Method in brief: as §3

windgrass [8] = assay: Test Example 4: herbicidal effect by soil treatment (Table 19, symbol L); type: in vivo, windgrass (Apera spica-venti); settings: amount of applied herbicide 320 g/ha
Method in brief: as §3

velvetleaf [9] = assay: Test Example 4: herbicidal effect by soil treatment (Table 19, symbol M); type: in vivo, velvetleaf (Abutilon theophrasti); settings: amount of applied herbicide 320 g/ha
Method in brief: as §3

redroot pigweed [10] = assay: Test Example 4: herbicidal effect by soil treatment (Table 19, symbol N); type: in vivo, redroot pigweed (Amaranthus retroflexus); settings: amount of applied herbicide 320 g/ha
Method in brief: as §3

lambsquarters [11] = assay: Test Example 4: herbicidal effect by soil treatment (Table 19, symbol O); type: in vivo, lambsquarters (Chenopodium album); settings: amount of applied herbicide 320 g/ha
Method in brief: as §3

chickweed [12] = assay: Test Example 4: herbicidal effect by soil treatment (Table 19, symbol P); type: in vivo, common chickweed (Stellaria media); settings: amount of applied herbicide 320 g/ha
Method in brief: as §3

persian speedwell [13] = assay: Test Example 4: herbicidal effect by soil treatment (Table 19, symbol R); type: in vivo, Persian speedwell (Veronica persica); settings: amount of applied herbicide 320 g/ha
Method in brief: as §3

southern crabgrass [14] = assay: Test Example 5: herbicidal effect by foliage application, plastic box (Table 20, symbol F); type: in vivo, southern crabgrass (Digitaria ciliaris); settings: amount of applied herbicide 320 g/ha; foliage application after 14-day growth; evaluated three weeks after application
Method in brief: (§4)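 Post-emergence foliar test in sterilized diluvial soil. Compound applied as water-diluted emulsion at a predetermined rate to 14-day-old plants; evaluation at three weeks.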

green foxtail [15] = assay: Test Example 5: herbicidal effect by foliage application, plastic box (Table 20, symbol G); type: in vivo, green foxtail (Setaria viridis); settings: amount of applied herbicide 320 g/ha; foliage application after 14-day growth; evaluated three weeks after application
Method in brief: as §4

barnyard grass [16] = assay: Test Example 5: herbicidal effect by foliage application, plastic box (Table 20, symbol H); type: in vivo, barnyard grass (Echinochloa crus-galli); settings: amount of applied herbicide 320 g/ha; foliage application after 14-day growth; evaluated three weeks after application
Method in brief: as §4

wild oat [17] = assay: Test Example 5: herbicidal effect by foliage application, plastic box (Table 20, symbol I); type: in vivo, wild oat (Avena fatua); settings: amount of applied herbicide 320 g/ha; foliage application after 14-day growth; evaluated three weeks after application
Method in brief: as §4

blackgrass [18] = assay: Test Example 5: herbicidal effect by foliage application, plastic box (Table 20, symbol J); type: in vivo, blackgrass (Alopecurus myosuroides); settings: amount of applied herbicide 320 g/ha; foliage application after 14-day growth; evaluated three weeks after application
Method in brief: as §4

Italian ryegrass [19] = assay: Test Example 5: herbicidal effect by foliage application, plastic box (Table 20, symbol K); type: in vivo, Italian ryegrass (Lolium multiflorum); settings: amount of applied herbicide 320 g/ha; foliage application after 14-day growth; evaluated three weeks after application
Method in brief: as §4

windgrass [20] = assay: Test Example 5: herbicidal effect by foliage application, plastic box (Table 20, symbol L); type: in vivo, windgrass (Apera spica-venti); settings: amount of applied herbicide 320 g/ha; foliage application after 14-day growth; evaluated three weeks after application
Method in brief: as §4

velvetleaf [21] = assay: Test Example 5: herbicidal effect by foliage application, plastic box (Table 20, symbol M); type: in vivo, velvetleaf (Abutilon theophrasti); settings: amount of applied herbicide 320 g/ha; foliage application after 14-day growth; evaluated three weeks after application
Method in brief: as §4

redroot pigweed [22] = assay: Test Example 5: herbicidal effect by foliage application, plastic box (Table 20, symbol N); type: in vivo, redroot pigweed (Amaranthus retroflexus); settings: amount of applied herbicide 320 g/ha; foliage application after 14-day growth; evaluated three weeks after application
Method in brief: as §4

lambsquarters [23] = assay: Test Example 5: herbicidal effect by foliage application, plastic box (Table 20, symbol O); type: in vivo, lambsquarters (Chenopodium album); settings: amount of applied herbicide 320 g/ha; foliage application after 14-day growth; evaluated three weeks after application
Method in brief: as §4

chickweed [24] = assay: Test Example 5: herbicidal effect by foliage application, plastic box (Table 20, symbol P); type: in vivo, common chickweed (Stellaria media); settings: amount of applied herbicide 320 g/ha; foliage application after 14-day growth; evaluated three weeks after application
Method in brief: as §4

persian speedwell [25] = assay: Test Example 5: herbicidal effect by foliage application, plastic box (Table 20, symbol R); type: in vivo, Persian speedwell (Veronica persica); settings: amount of applied herbicide 320 g/ha; foliage application after 14-day growth; evaluated three weeks after application
Method in brief: as §4

[26] = amount of applied herbicide 320 g/ha

## CCCC(=O)Oc1c(C)nn(C)c(=O)c1-c1c(-c2ccc(Cl)cc2OC)sc2ccc(F)cc12 [2-369]
Late watergrass; 320 g/ha applied herbicide
  Herbicidal effect on A: late watergrass (grade 0-5): 0 (Herbicidal rate of 5% or less (almost no effect))
Japanese bulrush; 320 g/ha applied herbicide
  Herbicidal effect on B: Japanese bulrush (grade 0-5): 0 (Herbicidal rate of 5% or less (almost no effect))
oval-leafed pondweed; 320 g/ha applied herbicide
  Herbicidal effect on C: oval-leafed pondweed (grade 0-5): 2 (Herbicidal rate of 20% or more and less than 40%)
Barnyard grass [1]; [26]
  herbicidal effect on H: barnyard grass: 4 (Herbicidal rate of 70% or more and less than 90%)
Chinese sprangletop; [26]
  herbicidal effect on D: Chinese sprangletop: 5 (Herbicidal rate of 90% or more (almost completely withered))
Rice flat sedge; [26]
  herbicidal effect on E: rice flat sedge: 4 (Herbicidal rate of 70% or more and less than 90%)
Southern crabgrass [2]
  herbicidal effect, F: southern crabgrass: 0 (Herbicidal rate of 5% or less (almost no effect))
Green foxtail [3]
  herbicidal effect, G: green foxtail: 0 (Herbicidal rate of 5% or less (almost no effect))
Barnyard grass [4]
  herbicidal effect, H: barnyard grass: 0 (Herbicidal rate of 5% or less (almost no effect))
Wild oat [5]
  herbicidal effect, I: wild oat: 0 (Herbicidal rate of 5% or less (almost no effect))
Blackgrass [6]
  herbicidal effect, J: blackgrass: 0 (Herbicidal rate of 5% or less (almost no effect))
Italian ryegrass [7]
  herbicidal effect, K: Italian ryegrass: 0 (Herbicidal rate of 5% or less (almost no effect))
Windgrass [8]
  herbicidal effect, L: windgrass: 3 (Herbicidal rate of 40% or more and less than 70%)
Velvetleaf [9]
  herbicidal effect, M: velvetleaf: 0 (Herbicidal rate of 5% or less (almost no effect))
Redroot pigweed [10]
  herbicidal effect, N: redroot pigweed: 0 (Herbicidal rate of 5% or less (almost no effect))
Lambsquarters [11]
  herbicidal effect, O: lambsquarters: 0 (Herbicidal rate of 5% or less (almost no effect))
Chickweed [12]
  herbicidal effect, P: chickweed: 0 (Herbicidal rate of 5% or less (almost no effect))
Persian speedwell [13]
  herbicidal effect, R: persian speedwell: 0 (Herbicidal rate of 5% or less (almost no effect))

## CCOc1cc(F)ccc1-c1sc2cc(F)c(F)cc2c1-c1c(O)c(C)nn(C)c1=O [5-031]
Late watergrass; [26]
  Herbicidal effect, A: late watergrass: 2 (Herbicidal rate of 20% or more and less than 40%)
Japanese bulrush; [26]
  Herbicidal effect, B: Japanese bulrush: 0 (Herbicidal rate of 5% or less (almost no effect))
oval-leafed pondweed; [26]
  Herbicidal effect, C: oval-leafed pondweed: 0 (Herbicidal rate of 5% or less (almost no effect))
Barnyard grass [1]; 320 g/ha
  herbicidal effect on barnyard grass (H): 5 (Herbicidal rate of 90% or more (almost completely withered))
Chinese sprangletop; 320 g/ha
  herbicidal effect on Chinese sprangletop (D): 4 (Herbicidal rate of 70% or more and less than 90%)
Rice flat sedge; 320 g/ha
  herbicidal effect on rice flat sedge (E): 5 (Herbicidal rate of 90% or more (almost completely withered))
Southern crabgrass [2]
  F: southern crabgrass, herbicidal effect grade: 4 (Herbicidal rate of 70% or more and less than 90%)
Green foxtail [3]
  G: green foxtail, herbicidal effect grade: 5 (Herbicidal rate of 90% or more (almost completely withered))
Barnyard grass [4]
  H: barnyard grass, herbicidal effect grade: 3 (Herbicidal rate of 40% or more and less than 70%)
Wild oat [5]
  I: wild oat, herbicidal effect grade: 1 (Herbicidal rate of 5% or more and less than 20%)
Blackgrass [6]
  J: blackgrass, herbicidal effect grade: 3 (Herbicidal rate of 40% or more and less than 70%)
Italian ryegrass [7]
  K: Italian ryegrass, herbicidal effect grade: 0 (Herbicidal rate of 5% or less (almost no effect))
Windgrass [8]
  L: windgrass, herbicidal effect grade: 5 (Herbicidal rate of 90% or more (almost completely withered))
Velvetleaf [9]
  M: velvetleaf, herbicidal effect grade: 4 (Herbicidal rate of 70% or more and less than 90%)
Redroot pigweed [10]
  N: redroot pigweed, herbicidal effect grade: 5 (Herbicidal rate of 90% or more (almost completely withered))
Lambsquarters [11]
  O: lambsquarters, herbicidal effect grade: 5 (Herbicidal rate of 90% or more (almost completely withered))
Chickweed [12]
  P: chickweed, herbicidal effect grade: 3 (Herbicidal rate of 40% or more and less than 70%)
Southern crabgrass [14]
  Herbicidal effect by foliage application, F: southern crabgrass: 5 (Herbicidal rate of 90% or more (almost completely withered))
Green foxtail [15]
  Herbicidal effect by foliage application, G: green foxtail: 5 (Herbicidal rate of 90% or more (almost completely withered))
Barnyard grass [16]
  Herbicidal effect by foliage application, H: barnyard grass: 5 (Herbicidal rate of 90% or more (almost completely withered))
Wild oat [17]
  Herbicidal effect by foliage application, I: wild oat: 4 (Herbicidal rate of 70% or more and less than 90%)
Blackgrass [18]
  Herbicidal effect by foliage application, J: blackgrass: 5 (Herbicidal rate of 90% or more (almost completely withered))
Italian ryegrass [19]
  Herbicidal effect by foliage application, K: Italian ryegrass: 2 (Herbicidal rate of 20% or more and less than 40%)
Windgrass [20]
  Herbicidal effect by foliage application, L: windgrass: 5 (Herbicidal rate of 90% or more (almost completely withered))
Velvetleaf [21]
  Herbicidal effect by foliage application, M: velvetleaf: 5 (Herbicidal rate of 90% or more (almost completely withered))
Redroot pigweed [22]
  Herbicidal effect by foliage application, N: redroot pigweed: 5 (Herbicidal rate of 90% or more (almost completely withered))
Lambsquarters [23]
  Herbicidal effect by foliage application, O: lambsquarters: 5 (Herbicidal rate of 90% or more (almost completely withered))
Chickweed [24]
  Herbicidal effect by foliage application, P: chickweed: 5 (Herbicidal rate of 90% or more (almost completely withered))
Persian speedwell [25]
  Herbicidal effect by foliage application, R: persian speedwell: 5 (Herbicidal rate of 90% or more (almost completely withered))
